We go through 23 compounds from PubChem BioAssay (NCI).

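Following 48 hours of exposure in 96-well plates, responses at five concentrations were used to interpolate endpoints linearly. GI50: concentration for 50% inhibition of growth. TGI is the concentration that stops growth completely.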 Bounds are passed on as bounds.

In the first assay the test system is NCI-H23 lung. The assay can be described thus: DTP human tumour cell line panel, 48 h.
In turn, `CCCCCCC(C)CCCCCCCCCCC(=O)O` (stereo unspecified) came in with a concentration for total growth inhibition (TGI) of more than 100 µM.
Turning to `CC(C)(C)c1ccc(OC2CCO2)cc1` (stereo unspecified), the total growth inhibition concentration (TGI) is more than 100 µM.
As for `CC1(O)CCn2c(=O)c3cc4ccccc4cc3c(=O)n2C1O` (stereo unspecified), the total growth inhibition concentration (TGI) is more than 100 µM.
As to `CC(C)[O-].CC(C)[O-].O=c1cccccc1[O-].O=c1cccccc1[O-].[Ti+4]`, the concentration for total growth inhibition (TGI) is more than 100 µM.
The compound `COc1cc(CNc2nc3ccc(C(F)(F)F)cc3nc2-c2ccccc2)cc(OC)c1OC` showed a total growth inhibition concentration (TGI) of more than 100 µM.
Regarding `CSc1ccc(N(C)c2nc(C)nc3c2CCC3)cc1`, the GI50 was less than 0.01 µM and the concentration for total growth inhibition (TGI) was 33 µM.
As for `COc1ccccc1NC(=O)/C(=C/c1ccccc1)C(C)=O`, the TGI was 65.7 µM.
On the same count and under the same terms, the result for `CC(=O)n1c(=O)c2cc3c(=O)n(-c4cccc(C#N)c4)c(=O)c3cc2c1=O` reads more than 100 µM; that for `O=C(CC1(O)C(=O)Nc2c(Cl)ccc(Cl)c21)c1ccc(Cl)cc1Cl` (stereo unspecified), 43.3 µM.
The same measure, in the same setting: the value for `CC1=NN(C(=O)c2ccncc2)C(=O)C1N=Nc1ccc(F)cc1` (stereo unspecified) was more than 100 µM; that for `C=CCNC(=O)N(CCC)CCCC(NC(C)=O)C(=O)NCc1ccccc1` (stereo unspecified) was more than 100 µM; that for `CN(C)C(=S)Nc1nnc(Nc2ccccc2)s1` was more than 100 µM.
`CCOC(=O)C1(Cc2ccc3ccccc3c2)CCCCC(=O)N1` (stereo unspecified) gave a total growth inhibition concentration (TGI) of more than 100 µM.
The same measure, in the same setting: the value for `C[C@]12C/C(=C/O)C(=O)C(O)=C1CC[C@@H]1C2CC[C@@]2(C)C1CC[C@@H]2O` (stereo partly specified) was 40.3 µM; that for `CC(C)(C)NCC(COc1ccc([N+](=O)[O-])cc1)OP(c1ccccc1)c1ccccc1` (stereo unspecified) was more than 100 µM; that for `N#CC(C#N)=c1c2nsnc2c(=C(C#N)C#N)c2nsnc12` was 3.91 µM.
Consider `Cc1nc(-c2cccnc2)sc1C(=O)/C=C/c1cccc([N+](=O)[O-])c1`, for which the concentration for total growth inhibition (TGI) was more than 100 µM.

A further assay relates to KM12 colon. The assay can be described thus: DTP human tumour cell line panel, 48 h.
In turn, `CC(C)(C)OC(=O)NC1CCCC1=O` (stereo unspecified) came in with a total growth inhibition concentration (TGI) of more than 100 µM.
On the same count and under the same terms, the value for `Cc1c(C(=O)/C=C/c2ccccc2[N+](=O)[O-])[n+](=O)c2ccccc2n1[O-]` was 22 µM.
Same read-out and setting: the value for `O=C1[C@H]2ON(c3ccccc3)C(c3ccco3)[C@H]2C(=O)N1c1ccc(Cc2ccc(N3C(=O)[C@@H]4ON(c5ccccc5)C(c5ccco5)[C@@H]4C3=O)cc2)cc1` (stereo partly specified) was more than 100 µM; that for `Cc1cccc(C)c1N1C(=O)C(=O)C(c2nc3ccccc3s2)/C(=N/NC(=O)NN)C1=O` (stereo unspecified) was more than 100 µM; that for `CCCCCCC(C)CCCCCCCCCCC(=O)O` (stereo unspecified) was more than 100 µM.
The same measure, in the same setting: the value for `CC(C)(C)c1ccc(OC2CCO2)cc1` (stereo unspecified) was 70.2 µM.
Consider `CC1(O)CCn2c(=O)c3cc4ccccc4cc3c(=O)n2C1O` (stereo unspecified), for which the TGI is more than 100 µM.
In turn, `CC(C)[O-].CC(C)[O-].O=c1cccccc1[O-].O=c1cccccc1[O-].[Ti+4]` displayed a TGI of 69.8 µM.
Same read-out and setting: the value for `COc1cc(CNc2nc3ccc(C(F)(F)F)cc3nc2-c2ccccc2)cc(OC)c1OC` was more than 100 µM.
As to `CSc1ccc(N(C)c2nc(C)nc3c2CCC3)cc1`, the GI50 is less than 0.01 µM and the TGI is 12.9 µM.
Turning to `COc1ccccc1NC(=O)/C(=C/c1ccccc1)C(C)=O`, the total growth inhibition concentration (TGI) is more than 100 µM.
Same read-out and setting: the value for `CC(=O)n1c(=O)c2cc3c(=O)n(-c4cccc(C#N)c4)c(=O)c3cc2c1=O` was more than 100 µM; that for `O=C(CC1(O)C(=O)Nc2c(Cl)ccc(Cl)c21)c1ccc(Cl)cc1Cl` (stereo unspecified) was 30.9 µM.
As for `C=C1C2Oc3ccccc3C1N(c1ccccc1)O2` (stereo unspecified), the TGI came to 42.2 µM.
Still for that read-out and setting: the value for `C=CCNC(=O)N(CCC)CCCC(NC(C)=O)C(=O)NCc1ccccc1` (stereo unspecified) was more than 100 µM.
Same read-out and setting: the result for `C[C@]12C/C(=C/O)C(=O)C(O)=C1CC[C@@H]1C2CC[C@@]2(C)C1CC[C@@H]2O` (stereo partly specified) reads 76.9 µM; that for `CC(C)(C)NCC(COc1ccc([N+](=O)[O-])cc1)OP(c1ccccc1)c1ccccc1` (stereo unspecified), more than 100 µM; that for `N#CC(C#N)=c1c2nsnc2c(=C(C#N)C#N)c2nsnc12`, 3.85 µM.
`Cc1nc(-c2cccnc2)sc1C(=O)/C=C/c1cccc([N+](=O)[O-])c1`: the concentration for total growth inhibition (TGI) was more than 100 µM.

The next assay has as its system HCT-116 colon. In words: DTP human tumour cell line panel, 48 h.
`Cc1c2ccncc2c(C)c2c1[nH]c1ccc(O)c(OCC(F)(F)F)c12` gave a total growth inhibition concentration (TGI) of 9.11 µM.
Compound `CC(C)(C)OC(=O)NC1CCCC1=O` (stereo unspecified) showed a TGI of more than 100 µM.
Still for that read-out and setting: the result for `Cc1c(C(=O)/C=C/c2ccccc2[N+](=O)[O-])[n+](=O)c2ccccc2n1[O-]` reads 16.5 µM.
On the same count and under the same terms, the value for `Cc1cccc(C)c1N1C(=O)C(=O)C(c2nc3ccccc3s2)/C(=N/NC(=O)NN)C1=O` (stereo unspecified) was more than 100 µM.
The compound `CCCCCCC(C)CCCCCCCCCCC(=O)O` (stereo unspecified) returned a TGI of more than 100 µM.
Same read-out and setting: the result for `CC(C)(C)c1ccc(OC2CCO2)cc1` (stereo unspecified) reads 41.8 µM.
Still for that read-out and setting: the value for `CC1(O)CCn2c(=O)c3cc4ccccc4cc3c(=O)n2C1O` (stereo unspecified) was more than 100 µM; that for `CC(C)[O-].CC(C)[O-].O=c1cccccc1[O-].O=c1cccccc1[O-].[Ti+4]` was more than 100 µM.
Still for that read-out and setting: the value for `COc1cc(CNc2nc3ccc(C(F)(F)F)cc3nc2-c2ccccc2)cc(OC)c1OC` was more than 100 µM; that for `COc1ccccc1NC(=O)/C(=C/c1ccccc1)C(C)=O` was more than 100 µM; that for `CC(=O)n1c(=O)c2cc3c(=O)n(-c4cccc(C#N)c4)c(=O)c3cc2c1=O` was more than 100 µM.
For `O=C(CC1(O)C(=O)Nc2c(Cl)ccc(Cl)c21)c1ccc(Cl)cc1Cl` (stereo unspecified), the concentration for total growth inhibition (TGI) came out at 33.1 µM.
On the same count and under the same terms, the value for `CC1=NN(C(=O)c2ccncc2)C(=O)C1N=Nc1ccc(F)cc1` (stereo unspecified) was more than 100 µM.
The same measure, in the same setting: the value for `C=C1C2Oc3ccccc3C1N(c1ccccc1)O2` (stereo unspecified) was 54.2 µM.
`CN(C)C(=S)Nc1nnc(Nc2ccccc2)s1` came in with a concentration for total growth inhibition (TGI) of more than 100 µM.
As for `CC(C)(C)NCC(COc1ccc([N+](=O)[O-])cc1)OP(c1ccccc1)c1ccccc1` (stereo unspecified), the TGI was more than 100 µM.
The same measure, in the same setting: the result for `N#CC(C#N)=c1c2nsnc2c(=C(C#N)C#N)c2nsnc12` reads 3.71 µM.

The subject of another assay is OVCAR-4 ovarian. In words: DTP human tumour cell line panel, 48 h.
Compound `Cc1c2ccncc2c(C)c2c1[nH]c1ccc(O)c(OCC(F)(F)F)c12` came in with a TGI of 14 µM.
The same measure, in the same setting: the result for `CC(C)(C)OC(=O)NC1CCCC1=O` (stereo unspecified) reads more than 100 µM; that for `Cc1c(C(=O)/C=C/c2ccccc2[N+](=O)[O-])[n+](=O)c2ccccc2n1[O-]`, 22.8 µM.
The same measure, in the same setting: the result for `O=C1[C@H]2ON(c3ccccc3)C(c3ccco3)[C@H]2C(=O)N1c1ccc(Cc2ccc(N3C(=O)[C@@H]4ON(c5ccccc5)C(c5ccco5)[C@@H]4C3=O)cc2)cc1` (stereo partly specified) reads more than 100 µM.
The same measure, in the same setting: the result for `Cc1cccc(C)c1N1C(=O)C(=O)C(c2nc3ccccc3s2)/C(=N/NC(=O)NN)C1=O` (stereo unspecified) reads more than 100 µM; that for `CCCCCCC(C)CCCCCCCCCCC(=O)O` (stereo unspecified), more than 100 µM.
Take `CC(C)(C)c1ccc(OC2CCO2)cc1` (stereo unspecified): the concentration for total growth inhibition (TGI) was more than 100 µM.
The same measure, in the same setting: the value for `CC(C)[O-].CC(C)[O-].O=c1cccccc1[O-].O=c1cccccc1[O-].[Ti+4]` was more than 100 µM; that for `COc1cc(CNc2nc3ccc(C(F)(F)F)cc3nc2-c2ccccc2)cc(OC)c1OC` was more than 100 µM.
Consider `CSc1ccc(N(C)c2nc(C)nc3c2CCC3)cc1`, for which the concentration for 50% growth inhibition (GI50) is less than 0.01 µM and the TGI is more than 100 µM.
`COc1ccccc1NC(=O)/C(=C/c1ccccc1)C(C)=O` came in with a TGI of more than 100 µM.
With `CC(=O)n1c(=O)c2cc3c(=O)n(-c4cccc(C#N)c4)c(=O)c3cc2c1=O`, the TGI is more than 100 µM.
On the same count and under the same terms, the value for `O=C(CC1(O)C(=O)Nc2c(Cl)ccc(Cl)c21)c1ccc(Cl)cc1Cl` (stereo unspecified) was 23.3 µM.
On the same count and under the same terms, the value for `CC1=NN(C(=O)c2ccncc2)C(=O)C1N=Nc1ccc(F)cc1` (stereo unspecified) was more than 100 µM; that for `C=C1C2Oc3ccccc3C1N(c1ccccc1)O2` (stereo unspecified) was 75.3 µM.
Same read-out and setting: the result for `C=CCNC(=O)N(CCC)CCCC(NC(C)=O)C(=O)NCc1ccccc1` (stereo unspecified) reads more than 100 µM; that for `CN(C)C(=S)Nc1nnc(Nc2ccccc2)s1`, more than 100 µM; that for `CCOC(=O)C1(Cc2ccc3ccccc3c2)CCCCC(=O)N1` (stereo unspecified), more than 100 µM.
`C[C@]12C/C(=C/O)C(=O)C(O)=C1CC[C@@H]1C2CC[C@@]2(C)C1CC[C@@H]2O` (stereo partly specified) returned a TGI of 62.7 µM.
Same read-out and setting: the value for `N#CC(C#N)=c1c2nsnc2c(=C(C#N)C#N)c2nsnc12` was 3.83 µM.

The next assay relates to M14 melanoma. In words: DTP human tumour cell line panel, 48 h.
For `Cc1c2ccncc2c(C)c2c1[nH]c1ccc(O)c(OCC(F)(F)F)c12`, the total growth inhibition concentration (TGI) is 19.7 µM.
On the same count and under the same terms, the result for `CC(C)(C)OC(=O)NC1CCCC1=O` (stereo unspecified) reads more than 100 µM.
The same measure, in the same setting: the result for `Cc1c(C(=O)/C=C/c2ccccc2[N+](=O)[O-])[n+](=O)c2ccccc2n1[O-]` reads 23.1 µM.
Same read-out and setting: the result for `O=C1[C@H]2ON(c3ccccc3)C(c3ccco3)[C@H]2C(=O)N1c1ccc(Cc2ccc(N3C(=O)[C@@H]4ON(c5ccccc5)C(c5ccco5)[C@@H]4C3=O)cc2)cc1` (stereo partly specified) reads more than 100 µM; that for `Cc1cccc(C)c1N1C(=O)C(=O)C(c2nc3ccccc3s2)/C(=N/NC(=O)NN)C1=O` (stereo unspecified), more than 100 µM; that for `CCCCCCC(C)CCCCCCCCCCC(=O)O` (stereo unspecified), more than 100 µM.
Consider `CC(C)(C)c1ccc(OC2CCO2)cc1` (stereo unspecified), for which the TGI was more than 100 µM.
In turn, `CC(C)[O-].CC(C)[O-].O=c1cccccc1[O-].O=c1cccccc1[O-].[Ti+4]` showed a TGI of more than 100 µM.
Still for that read-out and setting: the result for `COc1cc(CNc2nc3ccc(C(F)(F)F)cc3nc2-c2ccccc2)cc(OC)c1OC` reads more than 100 µM; that for `COc1ccccc1NC(=O)/C(=C/c1ccccc1)C(C)=O`, 67.6 µM.
Same read-out and setting: the value for `CC(=O)n1c(=O)c2cc3c(=O)n(-c4cccc(C#N)c4)c(=O)c3cc2c1=O` was more than 100 µM; that for `O=C(CC1(O)C(=O)Nc2c(Cl)ccc(Cl)c21)c1ccc(Cl)cc1Cl` (stereo unspecified) was 25.9 µM.
`CC1=NN(C(=O)c2ccncc2)C(=O)C1N=Nc1ccc(F)cc1` (stereo unspecified) displayed a TGI of more than 100 µM.
On the same count and under the same terms, the value for `C=C1C2Oc3ccccc3C1N(c1ccccc1)O2` (stereo unspecified) was 67.1 µM; that for `C=CCNC(=O)N(CCC)CCCC(NC(C)=O)C(=O)NCc1ccccc1` (stereo unspecified) was more than 100 µM; that for `CN(C)C(=S)Nc1nnc(Nc2ccccc2)s1` was more than 100 µM.
The same measure, in the same setting: the result for `CCOC(=O)C1(Cc2ccc3ccccc3c2)CCCCC(=O)N1` (stereo unspecified) reads more than 100 µM; that for `C[C@]12C/C(=C/O)C(=O)C(O)=C1CC[C@@H]1C2CC[C@@]2(C)C1CC[C@@H]2O` (stereo partly specified), 38.1 µM; that for `CC(C)(C)NCC(COc1ccc([N+](=O)[O-])cc1)OP(c1ccccc1)c1ccccc1` (stereo unspecified), more than 100 µM.
`N#CC(C#N)=c1c2nsnc2c(=C(C#N)C#N)c2nsnc12` displayed a TGI of 3.54 µM.
